Measurements: patent US20240101527A1, “QUINOLONE CARBOXYLIC DERIVATIVES” (TAIGEN BIOTECHNOLOGY CO., LTD., priority 2019, published 2024)
≈ marks a conversion by molar mass, not a printed value.

Legend:
Assay in all cases: MIC determination, microdilution method (CLSI)
Format in all cases: cell-based
[1] = tested on: Staphylococcus aureus ATCC 29213; settings: for MIC: Staphylococcus aureus, ATCC29213, Gram(+), 24 h at 37° C., read-out: MIC Sa29213
Protocol: (§1) The MICs of compounds against all bacterial strains were determined using the microdilution method according to the Clinical and Laboratory Standards Institute guidelines. Bacteria from two or three colonies were picked from freshly streaked culture plates and incubated in culture broth for 8 h. The bacterial culture was then diluted with double-concentrated culture broth to a final concentration of 5×10^5 colony-forming unit (CFU)/mL. Testing compounds were prepared by diluting the stock solution with dimethyl sulfoxide (DMSO). The diluted bacterial suspension was added to an equal volume of a drug solution in a single microwell and incubated for 24 h at 37° C. The minimum concentration in the microwells with no visible bacterial growth was defined as the MIC. All MIC determinations were repeated twice on different days. The MIC of Compounds 1 to 15 against gram(+) and gram(−) bacteria are shown as follows: […]

[2] = tested on: Pseudomonas aeruginosa ATCC 27853; settings: for MIC: Pseudomonas aeruginosa, ATCC27853, Gram(−), 24 h at 37° C., read-out: MIC Pa27853
Protocol: as §1

[3] = tested on: Pseudomonas aeruginosa K2376; settings: for MIC: Pseudomonas aeruginosa, K2376, Gram(−), 24 h at 37° C., read-out: MIC PaK2376
Protocol: as §1

[4] = tested on: Streptococcus pneumoniae ATCC 49619; settings: for MIC: Streptococcus pneumoniae, ATCC49619, Gram(+), 24 h at 37° C., read-out: MIC Sp49619
Protocol: as §1

[5] = MIC of comparative compound / MIC of Compound 2
[6] = MIC of comparative compound / MIC of Compound 7
[7] = MIC of comparative compound / MIC of Compound 1
[8] = MIC of comparative compound / MIC of Compound 11
[9] = MIC of comparative compound / MIC of Compound 6
[10] = MIC of comparative compound / MIC of Compound 8

| Structure (SMILES) | MIC [1] | MIC [2] | MIC [3] | MIC [4] | further results |
| --- | --- | --- | --- | --- | --- |
| C[C@H]1C[C@H](N)CN(c2ccc3c(=O)c(C(=O)O)cn([C@@H]4C[C@@H]4F)c3c2Cl)C1 [Compound 11] | 0.031 µg/mL (≈ 0.0787 µM) | 2 µg/mL (≈ 5.08 µM) | 4 µg/mL (≈ 10.2 µM) | 0.25 µg/mL (≈ 0.635 µM) |  |
| CCC1CCN(c2ccc3c(=O)c(C(=O)O)cn(CC(F)F)c3c2OC)CC1N (stereo not shown) [B3, reference compound] |  |  |  |  | MIC difference (folds) Sa29213 [1, 5]: 1.0 folds; MIC difference (folds) Pa27853 [2, 5]: 4.0 folds; MIC difference (folds) PaK2376 [3, 5]: 8.0 folds; MIC difference (folds) Sp49619 [4, 5]: 8.1 folds |
| NC1CCN(c2ccc3c(=O)c(C(=O)O)cn([C@@H]4C[C@@H]4F)c3c2Cl)CC1 [Compound 15] | 0.063 µg/mL (≈ 0.166 µM) | 0.25 µg/mL (≈ 0.658 µM) | 8 µg/mL (≈ 21.1 µM) | 0.063 µg/mL (≈ 0.166 µM) |  |
| CC1CCN(c2ccc3c(=O)c(C(=O)O)cn(C4CC4)c3c2Cl)CC1N (stereo not shown) [D1, reference compound] |  |  |  |  | MIC difference (folds) Sa29213 [1, 6]: 1.0 folds; MIC difference (folds) Pa27853 [2, 6]: 2.0 folds; MIC difference (folds) PaK2376 [3, 6]: 4.0 folds; MIC difference (folds) Sp49619 [4, 6]: 1.0 folds |
| COc1c(N2CC[C@@H](C(F)(F)F)[C@H](N)C2)ccc2c(=O)c(C(=O)O)cn([C@@H]3C[C@@H]3F)c12 [Compound 4] | 0.031 µg/mL (≈ 0.0699 µM) | 4 µg/mL (≈ 9.02 µM) | 4 µg/mL (≈ 9.02 µM) | 0.031 µg/mL (≈ 0.0699 µM) |  |
| COc1c(N2CCC(C)C(N)C2)ccc2c(=O)c(C(=O)O)cn(C3CC3F)c12 (stereo not shown) [Compound 1, 7-(3-Amino-4-methyl-piperidin-1-yl)-1-(2-fluoro-cyclopropyl)-8-methoxy-4-oxo-1,4-dihydro-quinoline-3-carboxylic acid] | 0.031 µg/mL (≈ 0.0796 µM) | 0.25 µg/mL (≈ 0.642 µM) | 1 µg/mL (≈ 2.57 µM) | 0.031 µg/mL (≈ 0.0796 µM) |  |
| COc1c(N2CC(C)C(N)C2)ccc2c(=O)c(C(=O)O)cn(C3CC3)c12 (stereo not shown) [A1, reference compound] |  |  |  |  | MIC difference (folds) Sa29213 [1, 7]: 16.1 folds; MIC difference (folds) Sp49619 [4, 7]: 64.5 folds |
| CC1CC(N)CN(c2ccc3c(=O)c(C(=O)O)cn(C4CC4)c3c2Cl)C1 (stereo not shown) [F1, reference compound] |  |  |  |  | MIC difference (folds) Sa29213 [1, 8]: 1.0 folds; MIC difference (folds) Pa27853 [2, 8]: 2.0 folds; MIC difference (folds) PaK2376 [3, 8]: 1.0 folds; MIC difference (folds) Sp49619 [4, 8]: 2.0 folds |
| C[C@@H]1CCN(c2ccc3c(=O)c(C(=O)O)cn([C@@H]4C[C@@H]4F)c3c2Cl)C[C@H]1N [Compound 7] | 0.031 µg/mL (≈ 0.0787 µM) | 2 µg/mL (≈ 5.08 µM) | 2 µg/mL (≈ 5.08 µM) | 0.031 µg/mL (≈ 0.0787 µM) |  |
| CCC1CCN(c2ccc3c(=O)c(C(=O)O)cn(C4CC4)c3c2OC)CC1N (stereo not shown) [B1, reference compound] |  |  |  |  | MIC difference (folds) Sa29213 [1, 5]: 8.1 folds; MIC difference (folds) Pa27853 [2, 5]: 2.0 folds; MIC difference (folds) PaK2376 [3, 5]: 2.0 folds; MIC difference (folds) Sp49619 [4, 5]: 1.0 folds |
| COc1c(N2CCC(N)C2)ccc2c(=O)c(C(=O)O)cn(C3CC3F)c12 (stereo not shown) [C2, reference compound] |  |  |  |  | MIC difference (folds) Sa29213 [1, 9]: 8.0 folds; MIC difference (folds) Pa27853 [2, 9]: 1.0 folds; MIC difference (folds) PaK2376 [3, 9]: 1.0 folds; MIC difference (folds) Sp49619 [4, 9]: 15.9 folds |
| CCC[C@@H]1CCN(c2ccc3c(=O)c(C(=O)O)cn([C@@H]4C[C@@H]4F)c3c2OC)C[C@H]1N [Compound 3] | 0.031 µg/mL (≈ 0.0743 µM) | 2 µg/mL (≈ 4.79 µM) | 4 µg/mL (≈ 9.58 µM) | 0.031 µg/mL (≈ 0.0743 µM) |  |
| CC[C@@H]1CCN(c2ccc3c(=O)c(C(=O)O)cn([C@@H]4C[C@@H]4F)c3c2C)C[C@H]1N [Compound 10] | 0.031 µg/mL (≈ 0.08 µM) | 0.125 µg/mL (≈ 0.323 µM) | 0.5 µg/mL (≈ 1.29 µM) | 0.031 µg/mL (≈ 0.08 µM) |  |
| COc1c(N2CC[C@@H](F)[C@H](N)C2)ccc2c(=O)c(C(=O)O)cn([C@@H]3C[C@@H]3F)c12 [Compound 5] | 0.063 µg/mL (≈ 0.16 µM) | 4 µg/mL (≈ 10.2 µM) | 16 µg/mL (≈ 40.7 µM) | 0.063 µg/mL (≈ 0.16 µM) |  |
| COc1c(N2CC[C@H](N)C2)ccc2c(=O)c(C(=O)O)cn(C3CC3)c12 [C1, reference compound] |  |  |  |  | MIC difference (folds) Sa29213 [1, 9]: 4.0 folds; MIC difference (folds) Sp49619 [4, 9]: 8.0 folds |
| Cc1c(N2CCC[C@H](N)C2)ccc2c(=O)c(C(=O)O)cn([C@@H]3C[C@@H]3F)c12 [Compound 9] | 0.031 µg/mL (≈ 0.0863 µM) | 0.5 µg/mL (≈ 1.39 µM) | 2 µg/mL (≈ 5.56 µM) | 0.031 µg/mL (≈ 0.0863 µM) |  |
| COc1c(N2CC[C@H](N)C2)ccc2c(=O)c(C(=O)O)cn(C(C)CF)c12 (stereo partly shown) [C3, reference compound] |  |  |  |  | MIC difference (folds) Sa29213 [1, 9]: 127.0 folds; MIC difference (folds) Pa27853 [2, 9]: 16.0 folds; MIC difference (folds) PaK2376 [3, 9]: 4.0 folds; MIC difference (folds) Sp49619 [4, 9]: 508.0 folds |
| COc1c(N2C[C@@H](N)C[C@H](F)C2)ccc2c(=O)c(C(=O)O)cn([C@@H]3C[C@@H]3F)c12 [Compound 13] | 0.063 µg/mL (≈ 0.16 µM) | 2 µg/mL (≈ 5.08 µM) | 16 µg/mL (≈ 40.7 µM) | 0.031 µg/mL (≈ 0.0788 µM) |  |
| COc1c(N2CC[C@H](N)[C@@H](F)C2)ccc2c(=O)c(C(=O)O)cn([C@@H]3C[C@@H]3F)c12 [Compound 14] | 0.063 µg/mL (≈ 0.16 µM) | 2 µg/mL (≈ 5.08 µM) | 2 µg/mL (≈ 5.08 µM) | 0.125 µg/mL (≈ 0.318 µM) |  |
| CCC1CCN(c2ccc3c(=O)c(C(=O)O)cn(CC(F)F)c3c2Cl)CC1N (stereo not shown) [E1, reference compound] |  |  |  |  | MIC difference (folds) Sa29213 [1, 10]: 1.0 folds; MIC difference (folds) Pa27853 [2, 10]: 8.0 folds; MIC difference (folds) PaK2376 [3, 10]: 8.0 folds; MIC difference (folds) Sp49619 [4, 10]: 15.6 folds |
| CC1CC(N)CN(c2ccc3c(=O)c(C(=O)O)cn(CC(F)F)c3c2Cl)C1 (stereo not shown) [F2, reference compound] |  |  |  |  | MIC difference (folds) Sa29213 [1, 8]: 16.1 folds; MIC difference (folds) Pa27853 [2, 8]: 4.0 folds; MIC difference (folds) PaK2376 [3, 8]: 4.0 folds; MIC difference (folds) Sp49619 [4, 8]: 16.0 folds |
| COc1c(N2CCC(C)C(N)C2)ccc2c(=O)c(C(=O)O)cn(C3CC3)c12 (stereo not shown) [A2, reference compound] |  |  |  |  | MIC difference (folds) Sa29213 [1, 7]: 4.0 folds; MIC difference (folds) Pa27853 [2, 7]: 32.0 folds; MIC difference (folds) PaK2376 [3, 7]: 32.0 folds; MIC difference (folds) Sp49619 [4, 7]: 4.0 folds |
| Cc1c(N2C[C@@H](C)C[C@H](N)C2)ccc2c(=O)c(C(=O)O)cn([C@@H]3C[C@@H]3F)c12 [Compound 12] | 0.063 µg/mL (≈ 0.169 µM) | 1 µg/mL (≈ 2.68 µM) | 4 µg/mL (≈ 10.7 µM) | 0.125 µg/mL (≈ 0.335 µM) |  |
| CCC1CCN(c2ccc3c(=O)c(C(=O)O)cn(CC(F)(F)F)c3c2OC)CC1N (stereo not shown) [B2, reference compound] |  |  |  |  | MIC difference (folds) Sa29213 [1, 5]: 1.0 folds; MIC difference (folds) Pa27853 [2, 5]: 16.0 folds; MIC difference (folds) PaK2376 [3, 5]: 4.0 folds; MIC difference (folds) Sp49619 [4, 5]: 4.0 folds |
| CC[C@@H]1CCN(c2ccc3c(=O)c(C(=O)O)cn([C@@H]4C[C@@H]4F)c3c2OC)C[C@H]1N [Compound 2] | 0.031 µg/mL (≈ 0.0768 µM) | 0.5 µg/mL (≈ 1.24 µM) | 2 µg/mL (≈ 4.96 µM) | 0.031 µg/mL (≈ 0.0768 µM) |  |
| CC[C@@H]1CCN(c2ccc3c(=O)c(C(=O)O)cn([C@@H]4C[C@@H]4F)c3c2Cl)C[C@H]1N [Compound 8] | 0.031 µg/mL (≈ 0.076 µM) | 0.125 µg/mL (≈ 0.306 µM) | 0.5 µg/mL (≈ 1.23 µM) | 0.008 µg/mL (≈ 0.0196 µM) |  |
